Patent publication US10336746B1, “RAD51 inhibitors” (Cyteir Therapeutics, Inc., priority 2017, dated 2019)
Like-named read-outs stand apart in the source and are kept apart here.

Tests used:
[1] = tested on: Daudi cell line (AID positive); assay: Primary screening cell killing assay, Daudi cell line (AID positive); type: cell-based; settings: Homo sapiens, 168 h, cell death on Day 7, Cell-Titer Glo
Description: (§1) Primary screening was a phenotypic screen that utilized the synthetic lethal interaction between AID and RAD51 to identify compounds that were both potent and on target. AID expressing cells are dependent upon RAD51 for survival; inhibiting RAD51 in AID positive cells results in a cytotoxic effect.
The first step was to set up a cell killing assay in the Daudi cell line (AID positive). A 96 well u-bottom plate was prepared by writing the experiment number, plate number, date and initials in the top right corner of the plate lid. With a sterile 300 ml reservoir, and 25 ml serological pipette, evaporation buffer media was pipetted into reservoir in 25 ml increments. Using the liquid handler, 150 ul of evaporation buffer media was pipetted from reservoir into rows A and H, and Columns 1 and 12 of the 96 well u-bottom plate. Cell cultures were counted to obtain the density of cells per ml, and the culture viability. The cell density information was used to obtain 1,000,000 cells from culture using a 5 mL serological pipette into an epi tube. The cell density information from the culture was used to calculate the number of cells and volume of media needed for the assay to seed 1250 cells in 130 ul of media per available culture well in the 96 well u-bottom plate. Rows B through F were used for cells (50 wells in total), with row G left for an empty media control. The calculation was overestimated by 10 mL to account for the dead volume in the 300 ml reservoir. Once the media volume was calculated, the appropriate volume of media was pipetted in 25 mL increments into the 250 mL bottle using a 25 mL serological pipette. The 250 ml bottle was capped tightly, and placed into a 37° C. water bath for 2 minutes. While the culture media was warming, 10 mL of fresh media was pipetted from the 500 mL culture media bottle into a sterile 25 mL reservoir. Using the Eppendorf multichannel pipette, 130 ul of media was pipetted from the 25 mL reservoir into row G of the 96 well u-bottom plate. Once the 250 mL bottle of media was warmed, the volume of culture needed was pipetted into the bottle, and mixed gently with a 25 mL serological pipette as to not create bubbles, and then the contents of the bottle were pipetted into a new 300 mL reservoir. Using the liquid handler, 130 ul of culture was pipetted from the 300 mL reservoir into rows B through F of the 96 well u-bottom plate. Once the culture was added, the plate was placed into a 37° C. incubator until the compound master plate was prepared for use.
Two 96 well u-bottom plates were prepared by writing the master plate name in the upper right corner of the plate lid. Labeling one DMSO master and the other Media Master. The compounds of interest were obtained from the laboratory freezer, and placed into a 25 well storage box with a lid, and set the box aside. The compounds were vortexed after thawing but before use. Using an automatic multichannel pipette, 20 ul of 100% DMSO was pipetted into wells B3-B11 through G3-G11 of the DMSO master plate. For each compound on the master plate, 50 ul of the compound were pipetted in the appropriate well of row 2 (reference plate map to determine appropriate well). A serial dilution was prepared beginning by aspirating 20 ul from row 2 and mixing with row 3, repeating until row 11 was reached. Using the liquid handler, 194 ul of Daudi media was dispensed into wells B2-B11 through G2-G11 of the Media master plate. Using the liquid handler, 6 ul from the DMSO master plate was aspirated and dispensed into the media master plate, mixing 100 ul twice.
Compounds from master plate were then added to the culture plate. The culture plates were removed from the incubator, and set inside the biosafety cabinet. Using a liquid handler, 20 ul from wells B2 to B11 through G2 to G11 of master plate were aspirated, and dispensed into wells B2 to B11 through G2 to G11 of culture plate. This set was continued with each culture plate. […]

[2] = Bi-directional Caco-2 permeability; type: in vitro ADME; settings: human; for efflux ratio at 90 min: Caco-2, read-out: BA/AB Ratio; for Papp A→B at 90 min: Caco-2, apical to basolateral, read-out: AB Papp (cm/sec × 10^6); for Papp A→B at 90 min / Papp B→A at 90 min: 37 C, up to 90 minutes; for Papp B→A at 90 min: Caco-2, basolateral to apical, read-out: BA Papp (cm/sec × 10^6)
Description: Bi-directional Caco-2 permeability was assayed. Caco-2 cells were seeded onto permeable polycarbonate supports and allowed to differentiate for about 3 weeks prior to being used in the assays. The cells were then exposed to the compounds from either the apical or basolateral sides and incubated at 37 C for up to 90 minutes under light agitation. Compound transport was then measured using LC/MS/MS analysis at 30, 60, and 90 minutes.

[3] = tested on: WI-38 cells (AID negative); assay: Primary screening cell killing assay repeated in WI-38 cells (AID negative); type: cell-based; settings: Homo sapiens, 168 h, cell death on Day 7, Cell-Titer Glo
Description: as §1
Percent cell death and EC50 values were calculated by comparing the cell viability of the compound treated wells to the non-treated wells. Normalized RLU values were obtained by subtracting the media well values from each of the wells in the same column, and then dividing that value by the DMSO treated cells values. The percent kill was then calculated by subtracting the normalized RLU value from 1 and multiplying by 100. The average normalized percent kill value and standard error of the mean was then calculated. The kill values were then inputted into Prism with the corresponding standard errors. In Prism a non-linear regression line was plotted with the data points using a semi-log scale, and the EC50 value was calculated.

[4] = Caco-2, Caco-2, AB direction, read-out: AB Recovery %
[5] = Caco-2, Caco-2, BA direction, read-out: BA Recovery %

CC(C)OC(=O)Nc1ccc(-c2cnc([C@@H]3CC[C@@H](NC(=O)OC(C)C)CN3)s2)c(S(=O)(=O)NC(C)(C)C)c1 (relative stereo) [Ex. 63, trans-isopropyl N-[6-[5-[2-(tert-butylsulfamoyl)-4-(isopropoxycarbonylamino)phenyl]thiazol-2-yl]-3-piperidyl]carbamate]
EC50 [1]: 0.1 to 1 µM | recovery at 90 min [2, 4]: 83.6% | recovery at 90 min [2, 5]: 90% | efflux ratio at 90 min [2]: 2.5 | Papp A→B at 90 min [2]: 10.5 ×10⁻⁶ cm/s | Papp B→A at 90 min [2]: 26.7 ×10⁻⁶ cm/s

CC(C)NC(=O)OC1CCN(c2ncc(-c3ccc(NC(=O)NCc4ccccc4)cc3S(=O)(=O)NC(C)(C)C)s2)CC1 [Ex. 3, [1-[5-[4-(benzylcarbamoylamino)-2-(tert-butylsulfamoyl)phenyl]thiazol-2-yl]-4-piperidyl] N-isopropylcarbamate]
EC50 [1]: ≤ 0.1 µM | EC50 [3]: > 1 µM

CC(C)OC(=O)N1CCC(c2ncc(-c3ccc(NC(=O)NCc4ccccn4)cc3S(=O)(=O)NC(C)(C)C)s2)CC1 [Ex. 4, isopropyl 4-[5-[2-(tert-butylsulfamoyl)-4-(2-pyridylmethylcarbamoylamino)phenyl]thiazol-2-yl]piperidine-1-carboxylate]
EC50 [1]: > 1 µM | EC50 [3]: > 1 µM

CC(C)OC(=O)Nc1ccc(-c2cnc(N3CCN(C(=O)OC(C)C)CC3)s2)c(S(=O)(=O)NC(C)(C)C)c1 [Ex. 5, isopropyl 4-[5-[2-(tert-butylsulfamoyl)-4-(isopropoxycarbonylamino)phenyl]thiazol-2-yl]piperazine-1-carboxylate]
EC50 [1]: > 1 µM | recovery at 90 min [2, 4]: 34.7% | recovery at 90 min [2, 5]: 80.8% | efflux ratio at 90 min [2]: 0.4 | Papp A→B at 90 min [2]: 5.9 ×10⁻⁶ cm/s | Papp B→A at 90 min [2]: 2.2 ×10⁻⁶ cm/s

CC(C)OC(=O)Nc1ccc(-c2cnc([C@H]3CC[C@H](NC(=O)OC4CCCC4)CC3)s2)c(S(=O)(=O)NC(C)(C)C)c1 [Ex. 7, trans-isopropyl N-[3-(tert-butylsulfamoyl)-4-[2-[4-(cyclopentoxycarbonylamino)cyclohexyl]thiazol-5-yl]phenyl]carbamate]
EC50 [1]: 0.1 to 1 µM | recovery at 90 min [2, 4]: 55.9% | recovery at 90 min [2, 5]: 92% | efflux ratio at 90 min [2]: 1.2 | Papp A→B at 90 min [2]: 1.7 ×10⁻⁶ cm/s | Papp B→A at 90 min [2]: 2.1 ×10⁻⁶ cm/s

CC(C)OC(=O)NC12CCC(c3ncc(-c4ccc(NC(=O)N[C@@H](C)c5ccccc5)cc4S(=O)(=O)NC(C)(C)C)s3)(CC1)CC2 [Ex. 13, isopropyl (S)-(4-(5-(2-(N-(tert-butyl)sulfamoyl)-4-(3-(1-phenylethyl)ureido)phenyl)thiazol-2-yl)bicyclo[2.2.2]octan-1-yl)carbamate]
EC50 [1]: ≤ 0.1 µM | EC50 [3]: > 1 µM

CC(C)OC(=O)NC12CCC(c3ncc(-c4ccc(NC(=O)N[C@H](C)c5ccccc5)cc4S(=O)(=O)NC(C)(C)C)s3)(CC1)CC2 [Ex. 14, isopropyl (R)-(4-(5-(2-(N-(tert-butyl)sulfamoyl)-4-(3-(1-phenylethyl)ureido)phenyl)thiazol-2-yl)bicyclo[2.2.2]octan-1-yl)carbamate]
EC50 [1]: ≤ 0.1 µM | EC50 [3]: > 1 µM

CC(C)NC(=O)O[C@H]1CC[C@H](c2ncc(-c3ccc(NC(=O)OC(C)C)cc3S(=O)(=O)NC(C)(C)C)s2)CC1 [Ex. 20, trans-isopropyl N-[3-(tert-butylsulfamoyl)-4-[2-[4-(isopropylcarbamoyloxy)cyclohexyl]thiazol-5-yl]phenyl]carbamate]
EC50 [1]: > 1 µM | recovery at 90 min [2, 4]: 44.8% | recovery at 90 min [2, 5]: 96.6% | efflux ratio at 90 min [2]: 1.1 | Papp A→B at 90 min [2]: 9.4 ×10⁻⁶ cm/s | Papp B→A at 90 min [2]: 10.4 ×10⁻⁶ cm/s

CC(C)NC(=O)O[C@H]1CC[C@H](c2ncc(-c3ccc(NC(=O)NCc4ccccc4)cc3S(=O)(=O)NC(C)(C)C)s2)CC1 [Ex. 21, (1r,4r)-4-(5-(4-(3-benzylureido)-2-(N-(tert-butyl)sulfamoyl)phenyl)thiazol-2-yl)cyclohexyl isopropylcarbamate]
EC50 [1]: ≤ 0.1 µM | recovery at 90 min [2, 4]: 58.6% | recovery at 90 min [2, 5]: 78.3% | efflux ratio at 90 min [2]: 3 | Papp A→B at 90 min [2]: 3.6 ×10⁻⁶ cm/s | Papp B→A at 90 min [2]: 10.7 ×10⁻⁶ cm/s

CC(C)OC(=O)N[C@H]1CC[C@H](c2ncc(-c3ccc(NC(=O)NCc4ccccc4F)cc3S(=O)(=O)NC(C)(C)C)s2)CC1 [Ex. 28, isopropyl ((1r,4r)-4-(5-(2-(N-(tert-butyl)sulfamoyl)-4-(3-(2-fluorobenzyl)ureido)phenyl)thiazol-2-yl)cyclohexyl)carbamate]
EC50 [1]: ≤ 0.1 µM | recovery at 90 min [2, 4]: 66.9% | recovery at 90 min [2, 5]: 81% | efflux ratio at 90 min [2]: 1.7 | Papp A→B at 90 min [2]: 1.9 ×10⁻⁶ cm/s | Papp B→A at 90 min [2]: 3.3 ×10⁻⁶ cm/s

CC(C)OC(=O)N[C@H]1CC[C@H](c2ncc(-c3ccc(NC(=O)OC[C@H]4CCCN4C)cc3S(=O)(=O)NC(C)(C)C)s2)CC1 [Ex. 34, isopropyl ((1R,4r)-4-(5-(2-(N-(tert-butyl)sulfamoyl)-4-(((((R)-1-methylpyrrolidin-2-yl)methoxy)carbonyl)amino)phenyl)thiazol-2-yl)cyclohexyl)carbamate]
EC50 [1]: 0.1 to 1 µM | recovery at 90 min [2, 4]: 98.2% | recovery at 90 min [2, 5]: 96.8% | efflux ratio at 90 min [2]: 104 | Papp A→B at 90 min [2]: 0.4 ×10⁻⁶ cm/s | Papp B→A at 90 min [2]: 45.2 ×10⁻⁶ cm/s

CC(C)OC(=O)N[C@H]1CC[C@H](c2ncc(-c3ccc(NC(=O)OC[C@@H]4CCCN4C)cc3S(=O)(=O)NC(C)(C)C)s2)CC1 [Ex. 35, isopropyl ((1S,4r)-4-(5-(2-(N-(tert-butyl)sulfamoyl)-4-(((((S)-1-methylpyrrolidin-2-yl)methoxy)carbonyl)amino)phenyl)thiazol-2-yl)cyclohexyl)carbamate]
EC50 [1]: 0.1 to 1 µM | recovery at 90 min [2, 4]: 98.8% | recovery at 90 min [2, 5]: 108% | efflux ratio at 90 min [2]: 99.1 | Papp A→B at 90 min [2]: 0.4 ×10⁻⁶ cm/s | Papp B→A at 90 min [2]: 41 ×10⁻⁶ cm/s

CC(C)OC(=O)Nc1ccc(-c2cnc([C@H]3CC[C@H](NC(=O)OC(C)(C)C)CC3)s2)c(S(=O)(=O)NC(C)(C)C)c1 [Ex. 44, trans-isopropyl N-[4-[2-[4-(tert-butoxycarbonylamino)cyclohexyl]thiazol-5-yl]-3-(tert-butylsulfamoyl)phenyl]carbamate]
EC50 [1]: > 1 µM | recovery at 90 min [2, 4]: 36.2% | recovery at 90 min [2, 5]: 69.4% | efflux ratio at 90 min [2]: 1.3 | Papp A→B at 90 min [2]: 3.2 ×10⁻⁶ cm/s | Papp B→A at 90 min [2]: 4.2 ×10⁻⁶ cm/s

CC(C)(C)NS(=O)(=O)c1cc(NC(=O)NCc2ccccn2)ccc1-c1cnc(C2CCC(NC(=O)OC(C)(C)C)CC2)s1 (centres unmarked) [Ex. 45, tert-butyl ((1r,4r)-4-(5-(2-(N-(tert-butyl)sulfamoyl)-4-(3-(pyridin-2-ylmethyl)ureido)phenyl)thiazol-2-yl)cyclohexyl)carbamate]
EC50 [1]: ≤ 0.1 µM | recovery at 90 min [2, 4]: 73.6% | recovery at 90 min [2, 5]: 84.4% | efflux ratio at 90 min [2]: 1.4 | Papp A→B at 90 min [2]: 7.6 ×10⁻⁶ cm/s | Papp B→A at 90 min [2]: 10.8 ×10⁻⁶ cm/s
